Experimental data from US9540389B2, “Antimicrobial potentiators” (priority 2013, dated 2017).

Experiments:
[1] = tested on: Escherichia coli AB1157 ΔemrB; assay: Checkerboard MIC assay (antibacterial agent + MBX2319); type: cell-based; conditions: EmrB-defective mutant; data not shown
From the text: (§1) • Strains and Reagents. The following strains were obtained from the Keio collection (Baba, et al.: Construction of Escherichia coli K-12 in-frame, single-gene knockout mutants: the Keio collection. In Mol Syst Biol, vol. 2, pp. 2006 0008, (2006)): JW0451 (ΔacrB::kan), JW5503 (ΔtolC::kan), JW3234 (ΔacrF::kan), JW2661 (ΔemrB::kan), JW0863 (ΔmacB::kan). The deletion mutations in each of these strains were transferred to AB1157 using P1 phage transduction (see Table 1). The construction of the E. coli cell-based reporter strain (SOS-XXX) that was used for high throughput screening is described in detail in the supplementary information. […] Irgasan was a generous gift from Ciba Speciality Chemicals, Inc. (High Point, N.C.). Hoechst 33342 (H33342) was purchased from Molecular Probes (Eugene, Oreg.). […] Luria Broth (Miller) and agar were purchased as prepared dehydrated media from Becton Dickenson (Franklin Lakes, N.J.). The compound libraries used in high-throughput screens were purchased from Chembridge (San Diego, Calif.), ChemDiv (San Diego, Calif.), and TimTec (Newark, Del.). MBX2319 was synthesized by Microbiotix, Inc. • Antibacterial Activity Assays. The minimal inhibitory concentration (MIC) of antibacterial agents and biocides were determined using the microbroth dilution method essentially as described in the CLSI protocol M7-A7 (CLSI: Method for dilution antimicrobial susceptibility testing for bacteria that grow aerobically; Approved standard-document M7-A7. In Clinical and Laboratory Standards Institute document M7-A7, Clinical and Laboratory Standards Institute, Wayne, Pa., (2006)), with the following exceptions. LB media was used instead of MHB. […] The final concentration of DMSO in each assay was 2%. […] MIC assays were performed in triplicate and the geometric mean was calculated. Checkerboard MIC assays using an EPI and an antibacterial agent were performed essentially as described (Pillai, et al.: Antimicrobial Combinations. In Antibiotics in Laboratory Medicine, ed. by V. Lorian, pp. 365-440, Lippincott Williams & Wilkins, Philadelphia, Pa., (2005)), with the same modifications used for the MIC assays described above. • Time-Kill Assays. Killing curve assays were performed essentially as described (Pillai, et al.: Antimicrobial Combinations. In Antibiotics in Laboratory Medicine, ed. by V. Lorian, pp. 365-440, Lippincott Williams & Wilkins, Philadelphia, Pa., (2005)). Exponential bacterial cultures grown in LB were diluted to a cell density of ˜1×10^7 in LB followed by addition of CIP and/or an EPI. Viability was monitored over 2-4 hours by making serial dilutions in saline and spotting 5 μl of each dilution onto the surface of an LB agar plate in triplicate. Colonies were counted after the plates were incubated at 37° C. for 16-18 hr, colony forming units (CFU) per ml were calculated, and the average and standard deviation for the three replicates was determined. For treatments that decreased CFU/ml below the limit of detection for the spot plating method, the 100 μl samples were diluted into 5 ml LB top agar, were poured onto LB agar plates, and incubated for 18 hr at 37° C. To calculate the fraction of the control for each sample, the average CFU/ml values for treated samples were divided by those from the same sample at 0 h (time=0). Each experiment was repeated at least three times, and a representative experiment is shown. • H33342 Accumulation Assay. The rate of accumulation of the fluorescent dye Hoechst 33342 (H33342), which is a substrate of a wide variety of bacterial efflux pumps (van den Berg van Saparoea, et al., Biochemistry, vol. 44, pp. 16931-16938, (2005)), can be used to estimate the activity of the major efflux pumps in E. coli and many other bacterial species. The H33342 accumulation assay was used to evaluate the effect of EPIs on the activity of the AcrAB-TolC efflux pump in several bacterial species essentially as described (Coldham, et al., J Antimicrob Chemother, vol. 65, pp. 1655-1663, (2010)). […]

[2] = tested on: Escherichia coli AB1157 ΔmacB; assay: as above; type: cell-based; conditions: MacB-defective mutant; data not shown
From the text: as §1

P. aeruginosa ATCC 27853 = assay: MIC assay (microbroth dilution) ± 25 μM EPI; type: cell-based, Pseudomonas aeruginosa
From the text: as §1

| Structure (SMILES) | MIC shifts by MBX2319 [1] | MIC shifts by MBX2319 [2] | MIC (μg/ml) ± EPI: MBX2319 (P. aeruginosa ATCC 27853; + 25 μM MBX2319) | MIC (μg/ml) ± EPI: PAβN (P. aeruginosa ATCC 27853; + 25 μM PAβN) | MIC Ratio MBX2319 (P. aeruginosa ATCC 27853; MIC no cmpd/MIC + 25 μM MBX2319) | MIC Ratio PAβN (P. aeruginosa ATCC 27853; MIC no cmpd/MIC + 25 μM PAβN) | MIC (P. aeruginosa ATCC 27853; Pseudomonas aeruginosa, ATCC27853, no EPI, read-out: MIC (μg/ml) ± EPI: None) |
| --- | --- | --- | --- | --- | --- | --- | --- |
| CC1(C)Cc2c(C#N)c(SCCc3ccccc3)nc(N3CCOCC3)c2CO1 [MBX2319] | MIC shifts similar to WT | MIC shifts similar to WT |  |  |  |  |  |
| CCN1CCN(C(=O)N[C@@H](C(=O)N[C@@H]2C(=O)N3[C@@H]2SC(C)(C)[C@@H]3C(=O)O)c2ccccc2)C(=O)C1=O [Piperacillin, piperacillin] |  |  | 19 µg/mL | 19 µg/mL | 0.84 | 0.8 | 16 µg/mL |
